Our source for the IC50 values is BindingDB's records for doi:10.1021/acsmedchemlett.9b00381 (Dana-Farber Cancer Institute, 2019).

Assay [1] in a line: Inhibition of EGFR (unknown origin) expressed in mouse Ba/F3 cells assessed as reduction in cell growth incubated for 72 hrs in presence of 1 ug/ml Cetuximab by celltiter-glo luminescent cell viability assay. For orientation: Cellular ATP, detected with luciferase, serves as a proxy for viable cell number.
Assay [2] in a line: Inhibition of EGFR L858R mutant (unknown origin) expressed in mouse Ba/F3 cells assessed as reduction in cell growth incubated for 72 hrs in presence of 1 ug/ml Cetuximab by celltiter-glo luminescent cell viability assay.
Assay [3] can be described thus: Inhibition of EGFR double T790M/L858R mutant (unknown origin) expressed in mouse Ba/F3 cells assessed as reduction in cell growth incubated for 72 hrs in presence of 1 ug/ml Cetuximab by celltiter-glo luminescent cell viability assay.
A short description of assay [4]: Inhibition of EGFR triple T790M/L858R/C797S mutant (unknown origin) expressed in mouse Ba/F3 cells assessed as reduction in cell growth incubated for 72 hrs in presence of 1 ug/ml Cetuximab by celltiter-glo luminescent cell viability assay.

The IC50 is the concentration that inhibits the measured activity by half.

With `CN1CCN(c2ccc(Oc3ccc4c(c3)C(=O)N(Cc3ccccc3)c3cc(F)ccc3N4)cc2)CC1`, the 50% inhibitory concentration (IC50) in assay [1] is 3200 nM; in assay [2] it was 2700 nM; in assay [3], 360 nM; in assay [4], 200 nM.
For the compound `O=C1c2cc(-c3ccc(N4CCNCC4)cc3)ccc2Nc2ccc(F)cc2N1Cc1ccccc1`, the IC50 in assay [1] came out at 4100 nM; in assay [2], 3700 nM; in assay [3] it was 770 nM; in assay [4], 930 nM.
